The text below walks through data of ChEMBL document CHEMBL3046909, “C(18) acetylenic fatty acids of Ximenia americana with potential pesticidal activity” (J Agric Food Chem, 2000).

Data set [1] in a line: (§1) Toxicity in Artemia (brine shrimps) larvae. Format: organism-based. As to conditions: in vivo.
Data set [2] deals with Clavigralla tomentosicollis. Put plainly: Inhibition of hatching of Clavigralla tomentosicollis eggs in pods of cowpea at 4x10'4 ug/mL spray measured after 6 days. The data set is classed as functional.
For another data set, the system named is Artemia. The description is as §1. Format: organism-based. As to conditions: in vivo.

Values after ≈ are worked out from the molar mass of the structure shown.

As a reminder, the LC50 is the concentration that kills 50% of the test population. A higher LC50 goes with lower toxicity. `C/C=C/C=C/C#C/C=C\CCCCCCCCC(=O)O` registered an LC50 in data set [1] of 20 µg/mL (≈ 72.9 µM). In data set [2], the “inhibition (INH)” value is recorded as 92%.

As for `CC[C@H](CC[C@@H](C)[C@H]1CC[C@H]2[C@@H]3CC=C4C[C@@H](O)CC[C@]4(C)[C@H]3CC[C@]12C)C(C)C` [BETA-SITOSTEROL], the Activity entry with Artemia is given as “Non-toxic”.
